Test results: patent US9802985B2, “Pharmaceutical composition for treatment of the pulmonary form of altitude sickness caused by lack of oxygen and reduced air pressure” (APEPTICO FORSCHUNG UND E[…], priority 2012, dated 2017)
“Also recorded” adds a separate entry of the source. No end group written: not given here.

Experiments:
[1] = molecular target: T1, amiloride-sensitive epithelial sodium ion channel (ENaC) (Homo sapiens, UniProt P37088+P51168+P51170); assay: whole cell patch clamp test with A549 cells (Example 3); assay type: cell-based; conditions: for effect on the Na+ flow (in words) / effect on the Na+ flow / ENaC (in words): whole cell patch clamp; for effect on the Na+ flow / ENaC (in words): 300 nM in bath solution, n=3
T1 construct: the human alveolar epithelial cell line A549 was used; endogenous in cells; host or cells: A549 (human alveolar epithelial cell line)
Description: According to patent application EP 2 009 023 A1, the so-called transepithelial electrical resistance (TEER) test was used for the screening of anti-lung oedema active ingredient candidates. The “TEER test” is not an established test for the prediction of fluid clearance in lung oedemas (this test can not be found in the relevant scientific literature and also has no relevance with regard to the cells being used (Calu-3 cells) in a model for gas exchange in the human lung). In the present example—in addition to the peptide according to the invention—the peptides […], […] and (cyclized) […] were investigated by means of a whole cell patch clamp assay, an established methodology for the measurement of ion movement over the cell membranes and especially for the measuring of the sodium transport over the cell membrane of alveolar epithelial cells (Eaton et al., Fed. Proc. 45 (1986), 2707; Hamill et al., Pflugers Arch. 391 (1981) 85-100. Here it was to be tested whether or not the peptides can activate the amiloride-sensitive epithelial sodium flow in lung cells.
The whole cell patch clamp test using A549 cells took place as described in Hazemi et al. (J. Med. Chem. 53 (2010), 8021-8029). […] In cases where an increase of the flow after addition of a given peptide was observed, an amiloride solution (to […] final concentration) was added to the bath solution—after the flow reached a stationary state —, in order to differentiate the amiloride-sensitive from the amiloride-insensitive flow. The amiloride-sensitive flow was then calculated by subtracting the flow value after addition of amiloride (amiloride-insensitive) from the flow value of the stationary state before the addition of amiloride. For each peptide, three experiments were carried out in different A549 cells (n=3).

[2] = tested on: pulmonary form of altitude sickness in rats; assay: experimental rat model of the pulmonary form of altitude sickness (physical activity under reduced oxygen and air pressure); assay type: in vivo, rat (Sprague Dawley)
Description: Physical exertion under conditions of reduced oxygen and air pressure, such as occur at high altitudes, are the 2 main factors which lead to the development of the pulmonary form of altitude sickness. Therefore, the selected rat model, in which the rats carried out physical activity under conditions of reduced oxygen and reduced air pressure, simulates a physically strenuous ascent to high altitudes. This takes place without carrying out a prior acclimatization. This corresponds to the scenario such as is to be found in the case of mountaineers who suffer from the pulmonary form of altitude sickness at high altitudes. In the model which was used, the rats develop the typical symptoms for the pulmonary form of altitude sickness, as is to be read in the “intensity of the pulmonary form of altitude sickness”, the increased protein concentration in the lung fluid and the histological appearance of the lung tissue. It is further to be noted that the lung damage in this model is not caused by administration of endotoxins, microbes or other agents which are damaging to the lung. […] Also, no specific strain of rat was used for this experiment. Therefore, this rat model is well suited to investigate a medicament for the treatment of the pulmonary form of altitude sickness.
Laboratory rats (Sprague Dawley rats) carried out physical activity through external stimulation for 48 hours under conditions of reduced oxygen and air pressure. Here, the air pressure was reduced to a value below 430 Torr, so that a height of over 4500 m was simulated. A prior acclimatization of the rats to the height of over 4500 m was not carried out. During this time, the rats were able to undertake a 15-20 minute pause every 4 hours in order to take in water and food. […] The lungs were then removed and the intensity of the pulmonary form of altitude sickness was determined (FIG. 1), the protein content in the lung fluid was determined (FIG. 2) and the histological appearance of the lung tissue was determined (FIG. 3).

[3] = tested on: interleukin-6 (IL-6) secretion in human full blood; assay: ex vivo release of interleukin-6 from fresh human full blood cultures (ELISA); assay type: cell-based; conditions: for Concentration of IL-6: human full blood, 24 hours, n=5
Procedure: In this study, fresh full blood was used; this is a recognized prediction model for the assessment of the inflammatory reaction in vivo.
The aim of this study was to determine the pro-inflammatory signal capacity of the peptide SEQ ID NO: 1.
Full blood (FB) cultures were carried out by pipetting 1 ml FB in depressions of 24-well plates. In each experiment, unstimulated and stimulated control cultures were included.
If possible, the substances and stimulants to be examined were always used in the same volume in each well in a given experiment, which is not greater than 10% of the total volume in a well. Unstimulated controls took place with PBS. Volume adjustment and dilutions for different treatments were likewise carried out with PBS.
The content of each well was mixed and the plates were incubated at 37° C. and 5% CO2 for 24 hours. After incubation, the content of each well was transferred into a fresh 1.5 ml microtube and centrifuged at 8000 to 9000×g for 15 minutes. The supernatant of each sample was divided individually to two 1.5 ml reaction vessels and stored at −20° C. until use.
Interleukin-6 was quantified by means of a specific ELISA (Human IL-6 ELISA-Set, BD Biosciences, Cat. No. 555220) using an anti-human-IL-6 antibody as capture antibody, a biotinylated anti-human IL-6 detection antibody, avidin horseradish peroxidise conjugate as enzyme reagent and recombinant IL-6 as standard. Absorption measurement at 450 nm was carried out with the Packard Fusion reader.
The results of each plate were stored and evaluated with the fusion data analysis software. […]

[4] = molecular target: T2, amiloride-sensitive sodium ion channel (ENaC) (Homo sapiens, UniProt P37088+P51168+P51170); assay: whole cell patch clamp on A549 cells, amiloride-sensitive sodium ion flow, EC50 (Example 4); assay type: cell-based
T2 construct: Macroscopic sodium ion flows were derived from human lung epithelial cells A549; endogenous in cells; host or cells: A549 (human lung epithelial cells)
Description: The activity of the individual peptides is indicated as EC50 (in nM).

[5] = intratracheal 100, 300 and 600 μg/rat (especially 300 μg), 4 hours after administration

T1 sequence (P51168 whole entry): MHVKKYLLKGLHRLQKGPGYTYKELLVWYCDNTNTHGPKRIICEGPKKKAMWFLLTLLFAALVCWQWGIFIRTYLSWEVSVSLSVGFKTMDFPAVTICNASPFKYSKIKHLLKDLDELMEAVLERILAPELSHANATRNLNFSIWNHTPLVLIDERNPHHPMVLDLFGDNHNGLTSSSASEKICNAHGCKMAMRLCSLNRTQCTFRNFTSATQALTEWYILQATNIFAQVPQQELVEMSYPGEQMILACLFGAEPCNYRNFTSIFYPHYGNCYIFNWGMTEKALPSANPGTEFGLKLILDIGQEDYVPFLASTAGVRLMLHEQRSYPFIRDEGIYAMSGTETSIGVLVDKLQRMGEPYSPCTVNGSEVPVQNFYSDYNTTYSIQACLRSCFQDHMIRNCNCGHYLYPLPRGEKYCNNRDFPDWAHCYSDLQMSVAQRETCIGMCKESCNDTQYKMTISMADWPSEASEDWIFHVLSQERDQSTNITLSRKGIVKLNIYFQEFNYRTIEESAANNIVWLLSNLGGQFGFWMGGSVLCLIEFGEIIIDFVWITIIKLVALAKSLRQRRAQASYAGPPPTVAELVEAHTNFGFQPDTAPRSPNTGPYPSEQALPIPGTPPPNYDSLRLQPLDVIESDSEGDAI
T1 sequence (P37088 whole entry): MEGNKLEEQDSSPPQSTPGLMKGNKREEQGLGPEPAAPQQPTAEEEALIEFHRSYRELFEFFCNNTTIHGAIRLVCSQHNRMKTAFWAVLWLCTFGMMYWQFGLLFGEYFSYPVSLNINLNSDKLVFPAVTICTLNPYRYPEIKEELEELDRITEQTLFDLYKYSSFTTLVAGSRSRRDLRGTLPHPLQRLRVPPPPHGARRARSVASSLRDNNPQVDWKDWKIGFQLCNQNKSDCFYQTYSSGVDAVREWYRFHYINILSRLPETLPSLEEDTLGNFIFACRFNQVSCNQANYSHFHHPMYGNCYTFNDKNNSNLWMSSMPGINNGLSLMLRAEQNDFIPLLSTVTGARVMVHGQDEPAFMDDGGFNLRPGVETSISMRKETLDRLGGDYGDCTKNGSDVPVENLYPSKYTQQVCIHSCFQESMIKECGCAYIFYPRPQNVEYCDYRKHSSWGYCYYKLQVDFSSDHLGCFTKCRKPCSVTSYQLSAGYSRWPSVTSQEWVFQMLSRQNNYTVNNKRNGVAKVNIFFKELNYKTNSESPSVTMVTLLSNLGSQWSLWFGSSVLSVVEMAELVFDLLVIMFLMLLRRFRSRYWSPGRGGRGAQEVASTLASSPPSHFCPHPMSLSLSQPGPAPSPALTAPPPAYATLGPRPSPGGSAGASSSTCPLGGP
T1 sequence (P51170 whole entry): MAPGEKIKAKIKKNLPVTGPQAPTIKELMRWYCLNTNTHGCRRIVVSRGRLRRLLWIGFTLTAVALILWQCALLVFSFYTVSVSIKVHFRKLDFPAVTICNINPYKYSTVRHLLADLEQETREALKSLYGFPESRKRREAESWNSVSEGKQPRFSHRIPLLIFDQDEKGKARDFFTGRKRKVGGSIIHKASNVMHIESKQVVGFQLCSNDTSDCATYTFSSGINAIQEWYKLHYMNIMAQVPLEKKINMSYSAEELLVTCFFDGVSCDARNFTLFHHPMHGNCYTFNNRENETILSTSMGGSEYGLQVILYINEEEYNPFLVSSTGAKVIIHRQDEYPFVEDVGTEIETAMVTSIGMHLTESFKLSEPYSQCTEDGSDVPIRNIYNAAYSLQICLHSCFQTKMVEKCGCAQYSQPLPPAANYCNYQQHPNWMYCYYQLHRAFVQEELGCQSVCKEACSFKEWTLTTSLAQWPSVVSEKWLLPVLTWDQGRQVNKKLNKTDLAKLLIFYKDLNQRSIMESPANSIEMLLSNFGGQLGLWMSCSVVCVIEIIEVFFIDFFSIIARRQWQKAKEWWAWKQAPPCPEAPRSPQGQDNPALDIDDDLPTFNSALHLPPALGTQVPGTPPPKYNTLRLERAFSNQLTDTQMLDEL
T2 sequence (P37088 whole entry): as the sequence (P37088 whole entry) above
T2 sequence (P51168 whole entry): as the sequence (P51168 whole entry) above
T2 sequence (P51170 whole entry): as the sequence (P51170 whole entry) above

With `C[C@@H]1NC(=O)CNC(=O)[C@H](CCC(=O)O)NC(=O)[C@@H]2CCCN2C(=O)[C@H]([C@@H](C)O)NC(=O)[C@H](CCC(=O)O)NC(=O)[C@H](CCCNC(=N)N)NC(=O)[C@H](CCC(N)=O)NC(=O)CNC(=O)[C@@H](N)CSSC[C@@H](C(=O)O)NC(=O)[C@H](Cc2ccc(O)cc2)NC(=O)[C@H](Cc2c[nH]c3ccccc23)NC(=O)[C@@H]2CCCN2C(=O)[C@H](CCCCN)NC(=O)[C@H](C)NC(=O)[C@H](CCC(=O)O)NC1=O` [SEQ ID NO: 1] as the compound, how does the “amiloride-sensitive Na+ flow after addition of the peptide” value ([1]; 240 nM, increased from 50 pA, flow minus amiloride-insensitive flow) read?
The value was 1037 pA.

And the “effect on the Na+ flow (in words)” value ([1]; 240 nM in bath solution)?
The value was “induced an increase of the sodium flow over that of the control value”.

What about the “effect on the Na+ flow (in words)” value ([1]; 240 nM in bath solution, listed as AP301) of the same compound?
Its value is “immediate intensifying effect”.

What about the “active Na+ flow after addition of the peptide (maximum)” value ([1]; whole cell, clamped at -100 mV, 240 nM in bath solution, control value 86 pA±5 pA) of the same compound?
Its value is 1073±15 pA.

What about the “histological appearance of lung tissue” value ([2]; 4 hours after intratracheal administration) of the same compound?
Its value is “comparable with healthy lung tissue of the control rats”.

And the “intensity of the pulmonary form of altitude sickness” value [2, 5]?
The value was “led to reduction of the intensity of the pulmonary form of altitude sickness”.

And the “protein concentration in the lung fluid” value [2, 5]?
The value was “led to reduction of the protein concentration in the lung fluid”.

What about the “induction of IL-6 secretion (in words)” value ([3]; human full blood cultures of five healthy donors, all tested concentrations (10 μg/ml to 1 ng/ml)) of the same compound?
Its value is “did not induce any detectable amount of IL-6 secretion; also recorded: induced no detectable level of IL-6”.

What about the “TNF receptor binding activity (concluded from absent IL-6 release)” value ([3]; human full blood ex vivo model) of the same compound?
The value was “does not have TNF receptor binding activity”.

And the “Concentration of IL-6” value [3]?
Its value is “less than 0.5 pg/ml”.

What about the “Concentration of IL-6” value ([3]; test concentration 1 ng/ml) of the same compound?
The value was “less than 0.5 pg/ml”.

What about the “Concentration of IL-6” value ([3]; test concentration 3 ng/ml) of the same compound?
Its value is “less than 0.5 pg/ml”.

What about the “Concentration of IL-6” value ([3]; test concentration 1 mg/ml) of the same compound?
The value was “less than 0.5 pg/ml”.

Which “Na+ flow after subsequent addition of amiloride” value ([1]; after AP301 240 nM, amiloride 100 mM in bath solution) does the source give for `N=C(N)NC(=O)c1nc(Cl)c(N)nc1N` [amiloride] here?
The value was 36 pA.

CGQREAPAGAAAKPWYC [SEQ ID NO: 19] was tested. Which “EC50 (nM), cellular amiloride-sensitive sodium ion flow” value ([4]; A549 cells, whole cell patch clamp, concentration at 50% of maximum increase of flow) did it give?
The value was “No activity”.

And the “activity on the amiloride-sensitive sodium ion channel (in words)” value ([4]; A549 lung cells)?
The value was “not active”.

“CGTKPIELGPDEPKAVC (not fully specified (bridges); also: cyclic)” was tested. Which “effect on the Na+ flow / ENaC (in words)” value [1] did it give?
The value was “no activating effect; also recorded: no effect on the flow; also recorded: none of the other three peptides had an influence on the flow”.

With QRETPEGAEAKPWY as the compound, how does the “effect on the Na+ flow / ENaC (in words)” value [1] read?
Its value is “no activating effect; also recorded: no effect on the flow; also recorded: none of the other three peptides had an influence on the flow”.

With TKPIELGPDEPKAV as the compound, how does the “effect on the Na+ flow / ENaC (in words)” value [1] read?
Its value is “no activating effect; also recorded: no effect on the flow; also recorded: none of the other three peptides had an influence on the flow”.
